Tests used:
5-HT5 = 5-HT5 (Homo sapiens, UniProt P47898); experiment: Receptor binding 5-HT5; conditions: radioligand [3H]-LSD, read-out: Ki(nM) Compound 1
Experimental: (§1) Receptor binding data were obtained by CEREP (128, rue Danton, 92500 Rueil-Malmaison, France) or at Solvay Pharmaceuticals B.V., using well documented standard procedures. Affinity for 5-HT1A receptors for instance, was determined by testing the ability of the compounds of the invention to displace [^3H]-2-(di-n-propylamino)-8-hydroxytetralin ([^3H]-8-OH-DPAT) from its specific binding sites in rat frontal cortex homogenates. This test is based on the method described by Gozlan et al. (Nature, 305, (1983), pages 140-142).
(§2) The binding data collected in the table below were either obtained by CEREP (128, rue Danton, 92500 Rueil-Malmaison, France) or at Solvay Pharmaceuticals B.V., using well documented standard procedures.

Histamine-H3 = Histamine-H3 (Rattus norvegicus, UniProt Q9QYN8); experiment: Receptor binding Histamine-H3; conditions: radioligand [3H]-α-methylhistamine, read-out: Ki(nM) Compound 1
Experimental: as §1, §2

BDNF = experiment: Induction of growth factors: BDNF RNA in brain areas by quantitative PCR; format: in vivo; conditions: 3 mg/kg p.o. once daily, 3 weeks
Experimental: Compounds of the invention (3 mg/kg, p.o.) or vehicle are administered once daily during a period of 3 weeks (n=8 animals per treatment group). 24 hours after the last dose the animals are sacrificed (using CO2/O2 anesthesia), the brains are removed and the dissected. RNA is extracted from the individual brain samples and induction of the growth factors BDNF and GDNF is determined by quantitative PCR. Total RNA is isolated with the Trizol method (Invitrogen) from the brain pieces. cDNA is made starting with 2 μg of total RNA (pretreated for 30 min with DNAse (Ambion) in first strand buffer) using the reverse transcriptase Superscript II (Invitrogen). Quantification of […] by real time PCR makes use of the observation that the early cycles of PCR are characterized by an exponential increase in target amplification. The accumulation of PCR product is measured using Sybergreen II. Primers are designed using the software package Primer Express (Applied Biosystems). Expression levels of the housekeeping genes ornithine decarboxylase (ODC_ex8) and alpha tubulin (TUBA) used for normalization and as control for good cDNA synthesis.

5-HT2B = 5-HT2B (Homo sapiens, UniProt P41595); experiment: Receptor binding 5-HT2B; conditions: radioligand [3H]-LSD, read-out: Ki(nM) Compound 1
Experimental: as §1, §2

DBA/2 mice = experiment: Interaction studies in DBA/2 mice: Compound 1 + vehicle, sumatriptan or SB 258741 (audiogenic seizures); format: in vivo; conditions: for Percentage of animal response, Clonic seizures / Percentage of animal response, Tonic extension: 30 min
Experimental: The experiments are performed according to the method previously described by De Sarro et al. (1984), Eur. J. Pharmacol., 104, 55-60. Compounds of the invention or vehicle (controls) are given intraperitoneally (i.p.) and orally (p.o.) as freshly sonicated solutions in methylcellulose 1%. For the i.p. treatment compounds of the invention are given at doses of 0.1, 0.3, 3, 10, 15, 20 and 30 mg/kg; pretreatment time at 30 and 60 min., For oral treatment, all animals are pretreated either at 30 or 60 min using the compounds of the invention at doses of 0.1, 0.3, 3, 6 and 10 mg/kg p.o. At least 10 mice per dose are used. After pretreatment time, each mouse is placed under a hemispheric perspex dome (58 cm in diameter) and 1 min is allowed for habituation and assessment of locomotor activity. Animals are challenged with a 12-16 kHz sinusoidal tone at 109 dB. Seizure response is assessed by two independent observers. The sound evoked behaviour is coded using the following scale: 0=no response, 1=wild running, 2=clonus, 3=tonic flexor and/or extensor; 4=respiratory arrest, on the basis of the concordant opinion of the observers. […] The maximum response is recorded for each animal. Rectal temperature is recorded immediately prior to auditory testing using an Elektrolaboratoriet thermometer type T.E.3. Behavioral changes are observed during the period between drug administration and auditory testing. In these experiments separate vehicle-treated and drug-treated groups are used at each pretreatment time (15 min-60 min). Percentage of mice showing wild running, clonic or tonic phase and the duration of anticonvulsant activity are compared to control group and statistically analyzed.

Dopamine-D2 = Dopamine-D2 (Homo sapiens, UniProt P14416); experiment: Receptor binding Dopamine-D2; conditions: radioligand [3H]-spiperone, read-out: Ki(nM) Compound 1
Experimental: as §1, §2

5-HT4 = 5-HT4 (Homo sapiens, UniProt Q13639); experiment: Receptor binding 5-HT4; conditions: radioligand [3H]-GR 113808, read-out: Ki(nM) Compound 1
Experimental: as §1, §2

Dopamine-D5 = Dopamine-D5 (Homo sapiens, UniProt P21918); experiment: Receptor binding Dopamine-D5; conditions: radioligand [3H]-SCH 23390, read-out: Ki(nM) Compound 1
Experimental: as §1, §2

angiotensin-AT1 = angiotensin-AT1 (Homo sapiens, UniProt P30556); experiment: Receptor binding angiotensin-AT1; conditions: radioligand [125I]-angiotensin II, read-out: Ki(nM) Compound 1
Experimental: as §1, §2

Neurokinin-NK1 = Neurokinin-NK1 (Homo sapiens, UniProt P25103); experiment: Receptor binding Neurokinin-NK1; conditions: radioligand [3H]-substance P, read-out: Ki(nM) Compound 1
Experimental: as §1, §2

Neurokinin-NK3 = Neurokinin-NK3 (Homo sapiens, UniProt P29371); experiment: Receptor binding Neurokinin-NK3; conditions: radioligand [3H]-SR 142801, read-out: Ki(nM) Compound 1
Experimental: as §1, §2

Prostaglandin-I2 = Prostaglandin-I2 (Homo sapiens, UniProt P43119); experiment: Receptor binding Prostaglandin-I2; conditions: radioligand [3H]-iloprost, read-out: Ki(nM) Compound 1
Experimental: as §1, §2

Muscarine-M3 = Muscarine-M3 (Homo sapiens, UniProt P20309); experiment: Receptor binding Muscarine-M3; conditions: radioligand [3H]-4-DAMP, read-out: Ki(nM) Compound 1
Experimental: as §1, §2

CGRP = CGRP (Homo sapiens, UniProt O60894+Q16602); experiment: Receptor binding CGRP; conditions: radioligand [125I]-CGRPa, read-out: Ki(nM) Compound 1
Experimental: as §1, §2

GABAB = GABAB (Rattus norvegicus, UniProt Q9Z0U4); experiment: Receptor binding GABAB; conditions: read-out: Ki(nM) Compound 1
Experimental: as §1, §2

[1] = dose of Compound 1 0.3 mg/kg i.p.
[2] = dose of Compound 1 3 mg/kg i.p.
[3] = dose of Compound 1 10 mg/kg i.p.
[4] = dose of Compound 1 15 mg/kg i.p.
[5] = dose of Compound 1 20 mg/kg i.p.

5-HT2B, sequence (P41595 whole entry): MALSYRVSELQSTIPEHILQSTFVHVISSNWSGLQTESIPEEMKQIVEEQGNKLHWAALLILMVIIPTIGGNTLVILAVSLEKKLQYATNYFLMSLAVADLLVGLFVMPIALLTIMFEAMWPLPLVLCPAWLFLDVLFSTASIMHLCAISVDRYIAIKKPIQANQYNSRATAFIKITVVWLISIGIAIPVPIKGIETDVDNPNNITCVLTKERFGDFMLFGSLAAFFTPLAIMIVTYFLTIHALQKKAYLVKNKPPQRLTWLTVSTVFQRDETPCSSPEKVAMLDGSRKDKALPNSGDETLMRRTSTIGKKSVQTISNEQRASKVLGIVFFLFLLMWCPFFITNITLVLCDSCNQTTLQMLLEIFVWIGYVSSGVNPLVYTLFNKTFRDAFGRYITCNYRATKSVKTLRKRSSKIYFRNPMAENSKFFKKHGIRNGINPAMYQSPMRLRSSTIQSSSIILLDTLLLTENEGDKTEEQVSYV
Dopamine-D2, sequence (P14416 whole entry): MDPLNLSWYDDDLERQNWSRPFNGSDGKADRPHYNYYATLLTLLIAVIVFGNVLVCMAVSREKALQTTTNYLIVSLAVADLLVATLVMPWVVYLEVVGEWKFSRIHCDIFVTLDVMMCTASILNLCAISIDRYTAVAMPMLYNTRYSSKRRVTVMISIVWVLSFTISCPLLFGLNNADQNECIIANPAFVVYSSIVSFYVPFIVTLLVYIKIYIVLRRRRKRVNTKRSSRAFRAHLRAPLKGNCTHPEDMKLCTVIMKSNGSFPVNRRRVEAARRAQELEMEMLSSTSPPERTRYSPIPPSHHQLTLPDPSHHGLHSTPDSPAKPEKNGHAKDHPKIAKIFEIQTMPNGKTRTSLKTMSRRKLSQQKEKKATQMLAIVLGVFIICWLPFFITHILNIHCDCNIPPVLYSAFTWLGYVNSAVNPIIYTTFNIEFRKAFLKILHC
5-HT5, sequence (P47898 whole entry): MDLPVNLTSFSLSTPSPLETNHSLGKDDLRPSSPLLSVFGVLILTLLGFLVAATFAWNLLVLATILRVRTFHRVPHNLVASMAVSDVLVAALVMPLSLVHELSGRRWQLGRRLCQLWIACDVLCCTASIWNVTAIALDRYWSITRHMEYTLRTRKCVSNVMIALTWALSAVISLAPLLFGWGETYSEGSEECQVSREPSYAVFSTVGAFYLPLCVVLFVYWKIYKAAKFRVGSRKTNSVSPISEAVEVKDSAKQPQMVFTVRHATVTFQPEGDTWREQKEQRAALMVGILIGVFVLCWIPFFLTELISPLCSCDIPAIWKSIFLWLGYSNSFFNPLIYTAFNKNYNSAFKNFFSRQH
5-HT4, sequence (Q13639 whole entry): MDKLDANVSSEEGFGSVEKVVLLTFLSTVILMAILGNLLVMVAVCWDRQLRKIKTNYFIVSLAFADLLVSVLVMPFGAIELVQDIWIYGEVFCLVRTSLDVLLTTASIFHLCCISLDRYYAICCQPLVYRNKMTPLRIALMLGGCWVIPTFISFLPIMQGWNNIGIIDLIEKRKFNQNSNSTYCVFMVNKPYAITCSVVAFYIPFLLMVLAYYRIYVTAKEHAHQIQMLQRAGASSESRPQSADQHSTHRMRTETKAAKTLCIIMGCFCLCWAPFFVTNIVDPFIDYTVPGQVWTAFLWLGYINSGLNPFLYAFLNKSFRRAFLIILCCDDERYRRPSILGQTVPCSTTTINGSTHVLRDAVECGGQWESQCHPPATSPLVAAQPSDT
angiotensin-AT1, sequence (P30556 whole entry): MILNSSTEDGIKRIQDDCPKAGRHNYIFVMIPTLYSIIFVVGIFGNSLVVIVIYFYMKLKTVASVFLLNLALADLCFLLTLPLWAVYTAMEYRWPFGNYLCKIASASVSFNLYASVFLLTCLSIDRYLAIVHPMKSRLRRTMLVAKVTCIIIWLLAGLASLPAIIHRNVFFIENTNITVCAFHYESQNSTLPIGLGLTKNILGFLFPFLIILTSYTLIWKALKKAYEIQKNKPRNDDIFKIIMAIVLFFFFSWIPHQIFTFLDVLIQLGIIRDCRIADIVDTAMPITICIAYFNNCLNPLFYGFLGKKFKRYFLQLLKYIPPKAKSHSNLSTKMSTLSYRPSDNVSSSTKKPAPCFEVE
Prostaglandin-I2, sequence (P43119 whole entry): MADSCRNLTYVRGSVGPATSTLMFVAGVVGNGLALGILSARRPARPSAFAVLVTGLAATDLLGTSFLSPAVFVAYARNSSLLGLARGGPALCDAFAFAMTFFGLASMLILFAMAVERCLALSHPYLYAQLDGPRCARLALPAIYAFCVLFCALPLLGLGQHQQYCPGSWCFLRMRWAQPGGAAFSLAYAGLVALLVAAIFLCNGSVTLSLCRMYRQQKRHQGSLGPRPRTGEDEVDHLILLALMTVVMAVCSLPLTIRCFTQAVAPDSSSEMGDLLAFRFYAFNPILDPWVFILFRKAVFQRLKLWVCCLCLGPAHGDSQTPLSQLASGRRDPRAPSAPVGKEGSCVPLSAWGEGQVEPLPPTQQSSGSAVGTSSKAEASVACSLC
Muscarine-M3, sequence (P20309 whole entry): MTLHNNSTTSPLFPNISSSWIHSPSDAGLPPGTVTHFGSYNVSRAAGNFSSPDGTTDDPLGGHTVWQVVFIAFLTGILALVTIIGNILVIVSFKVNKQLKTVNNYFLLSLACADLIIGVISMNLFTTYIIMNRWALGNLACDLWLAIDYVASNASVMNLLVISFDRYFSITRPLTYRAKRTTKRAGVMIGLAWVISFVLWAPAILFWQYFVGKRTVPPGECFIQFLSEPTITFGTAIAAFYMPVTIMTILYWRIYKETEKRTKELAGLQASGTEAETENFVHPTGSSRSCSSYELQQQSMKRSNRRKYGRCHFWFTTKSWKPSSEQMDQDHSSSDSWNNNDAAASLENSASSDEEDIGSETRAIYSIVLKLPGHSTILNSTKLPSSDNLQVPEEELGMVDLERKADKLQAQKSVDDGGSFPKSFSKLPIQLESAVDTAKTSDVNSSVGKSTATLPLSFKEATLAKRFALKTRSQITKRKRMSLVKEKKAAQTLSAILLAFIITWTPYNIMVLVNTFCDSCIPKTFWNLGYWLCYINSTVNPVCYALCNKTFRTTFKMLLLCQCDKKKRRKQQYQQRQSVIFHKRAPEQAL
GABAB, sequence (Q9Z0U4 17-960 limits assumed): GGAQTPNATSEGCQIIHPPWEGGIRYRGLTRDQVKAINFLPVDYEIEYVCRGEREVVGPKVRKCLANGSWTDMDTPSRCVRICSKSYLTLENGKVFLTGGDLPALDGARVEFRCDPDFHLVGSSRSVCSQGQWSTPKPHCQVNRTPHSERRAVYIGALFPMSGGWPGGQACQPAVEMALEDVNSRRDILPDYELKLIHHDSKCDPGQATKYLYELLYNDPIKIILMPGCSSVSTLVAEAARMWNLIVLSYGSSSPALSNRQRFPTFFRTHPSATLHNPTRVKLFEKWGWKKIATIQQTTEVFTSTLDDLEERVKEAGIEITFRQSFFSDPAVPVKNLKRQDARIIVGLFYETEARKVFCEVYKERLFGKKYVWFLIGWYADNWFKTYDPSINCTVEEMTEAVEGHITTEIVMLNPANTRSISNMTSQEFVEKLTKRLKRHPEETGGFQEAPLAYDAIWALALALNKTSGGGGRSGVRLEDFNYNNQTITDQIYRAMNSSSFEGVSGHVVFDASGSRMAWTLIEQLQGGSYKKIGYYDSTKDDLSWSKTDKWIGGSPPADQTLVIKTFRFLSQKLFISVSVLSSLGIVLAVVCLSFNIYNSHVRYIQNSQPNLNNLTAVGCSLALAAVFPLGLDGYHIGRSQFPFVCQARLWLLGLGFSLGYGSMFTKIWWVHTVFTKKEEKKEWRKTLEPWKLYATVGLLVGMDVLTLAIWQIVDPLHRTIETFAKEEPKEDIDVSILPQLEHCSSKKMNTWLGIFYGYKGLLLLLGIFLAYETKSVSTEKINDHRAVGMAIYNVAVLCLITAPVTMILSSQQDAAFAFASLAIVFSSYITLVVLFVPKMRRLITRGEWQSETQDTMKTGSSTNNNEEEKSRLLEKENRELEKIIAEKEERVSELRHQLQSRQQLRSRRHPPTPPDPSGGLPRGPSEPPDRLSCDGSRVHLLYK
GABAB, sequence (O88871 41-940 partner): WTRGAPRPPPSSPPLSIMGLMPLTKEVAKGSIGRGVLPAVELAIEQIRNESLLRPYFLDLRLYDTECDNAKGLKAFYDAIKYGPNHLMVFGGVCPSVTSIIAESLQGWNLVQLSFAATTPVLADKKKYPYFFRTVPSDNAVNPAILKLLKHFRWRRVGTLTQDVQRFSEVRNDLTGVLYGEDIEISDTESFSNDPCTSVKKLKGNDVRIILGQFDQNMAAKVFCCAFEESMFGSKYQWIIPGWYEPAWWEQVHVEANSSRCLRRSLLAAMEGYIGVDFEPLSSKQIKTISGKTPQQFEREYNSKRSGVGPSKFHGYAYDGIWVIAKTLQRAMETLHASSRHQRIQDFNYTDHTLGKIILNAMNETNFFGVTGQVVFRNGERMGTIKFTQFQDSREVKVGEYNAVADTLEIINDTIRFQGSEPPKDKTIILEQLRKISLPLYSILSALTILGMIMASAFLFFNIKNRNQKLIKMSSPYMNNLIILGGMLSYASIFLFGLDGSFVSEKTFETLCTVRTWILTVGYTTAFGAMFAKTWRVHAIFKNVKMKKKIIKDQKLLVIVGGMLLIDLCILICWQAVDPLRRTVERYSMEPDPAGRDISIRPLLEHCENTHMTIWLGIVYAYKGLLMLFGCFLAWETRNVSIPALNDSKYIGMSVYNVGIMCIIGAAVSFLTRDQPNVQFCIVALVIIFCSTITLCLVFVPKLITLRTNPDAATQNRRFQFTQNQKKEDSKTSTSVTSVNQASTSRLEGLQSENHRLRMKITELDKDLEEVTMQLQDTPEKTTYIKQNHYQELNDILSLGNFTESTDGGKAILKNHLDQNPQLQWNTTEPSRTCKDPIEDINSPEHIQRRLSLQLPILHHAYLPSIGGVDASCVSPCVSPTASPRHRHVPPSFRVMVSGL

Q: For Nc1cc2cccc(N3CCNCC3)c2oc1=O [Compound 1, 3-amino-8-(1-piperazinyl)-2H-1-benzopyran-2-one], which Ki (5-HT5) is on record?
A: 100 nM

Q: What about the Ki (Histamine-H3) of the same compound?
A: > 10000 nM

Q: And the “BDNF RNA, fold increase compared to vehicle treatment” value (“BDNF RNA, fold increase” for short) (BDNF; hippocampus)?
A: 2.4 fold

Q: And the “BDNF RNA, fold increase” value (BDNF; nucleus accumbens)?
A: 5.1 fold

Q: And the “BDNF RNA, fold increase” value (BDNF; prefrontal cortex)?
A: 2.1 fold

Q: And the “BDNF RNA, fold increase” value (BDNF; striatum)?
A: 1.8 fold

Q: What about the “BDNF RNA, fold increase” value (BDNF; thalamus) of the same compound?
A: 2.3 fold

Q: And the Ki (5-HT2B)?
A: 320 nM

Q: And the “Percentage of animal response, Clonic seizures” value (from here on “Percentage … Clonic seizures”) (DBA/2 mice; [1])?
A: 90%

Q: And the “Percentage of animal response, Tonic extension” value (shortened to “Percentage … Tonic extension”) (DBA/2 mice; [1])?
A: 60%

Q: And the “Percentage … Clonic seizures” value (DBA/2 mice; [2])?
A: 80%

Q: And the “Percentage … Tonic extension” value (DBA/2 mice; [2])?
A: 40%

Q: What about the “Percentage … Clonic seizures” value (DBA/2 mice; [3]) of the same compound?
A: 40%

Q: What about the “Percentage … Tonic extension” value (DBA/2 mice; [3]) of the same compound?
A: 0%

Q: What about the “Percentage … Clonic seizures” value (DBA/2 mice; [4]) of the same compound?
A: 20%

Q: What about the “Percentage … Tonic extension” value (DBA/2 mice; [4]) of the same compound?
A: 0%

Q: And the “Percentage … Clonic seizures” value (DBA/2 mice; [5])?
A: 10%

Q: What about the “Percentage … Tonic extension” value (DBA/2 mice; [5]) of the same compound?
A: 0%

Q: What about the behavioural changes (DBA/2 mice; i.p., all dosages tested) of the same compound?
A: At none of the dosages tested

Q: What about the Ki (Dopamine-D2) of the same compound?
A: > 1000 nM

Q: What about the Ki (5-HT4) of the same compound?
A: > 1000 nM

Q: And the Ki (Dopamine-D5)?
A: > 1000 nM

Q: And the Ki (angiotensin-AT1)?
A: > 1000 nM

Q: What about the Ki (Neurokinin-NK1) of the same compound?
A: > 1000 nM

Q: And the Ki (Neurokinin-NK3)?
A: > 1000 nM

Q: What about the Ki (Prostaglandin-I2) of the same compound?
A: > 1000 nM

Q: And the Ki (Muscarine-M3)?
A: > 1000 nM

Q: What about the Ki (CGRP) of the same compound?
A: > 1000 nM

Q: What about the Ki (GABAB) of the same compound?
A: > 1000 nM
